Source: patent US9212146B2, “Substituted pyridazinones for the treatment of tumors” (SHANGHAI INSTITUTE OF MATERIA MEDICA, CHINESE ACADEMY OF …, priority 2008, dated 2015)
Where two headings read alike, the source gives them in different places.

Tested on: human hepatoma cell line Bel-7402
Assay: SRB proliferation assay, Bel-7402
Type: cell-based
Details: BEL-7402 cultivated in vitro, given as bounds, read-out: The Inhibition Activities for Human Liver Cancer Cells BEL-7402 (IC50)
Method: Protocol: the antineoplasmic activities in vitro of the compounds were assayed by a Sulforhodamine B (SRB) protocol. Tumor cells were cultivated at 37 under 5% CO2 in a RPMI 1640 medium or a DMEM medium (Gibco) containing 10% fetal bovine serum. Tumor cells were inoculated on a 96-well plate with a concentration of 0.4-1.0×10^4 cells per well according to the cell types. 24 hours later, the target compounds diluted 10 times were added, each compound having at least 5 concentrations. After treated by the compounds for 72 hours, the culture media were discarded, and the cells were fixed by 10% cold trichloroacetic acid, and then stained by Sulforhodamine B (SRB) solution. The uncombined SRB was washed off, and the SRB combined with protein was dissolved with Tris. OD values were recorded at 515 nm on an ELISA Reader, and the cell growth inhibition rate was calculated according to following equation: Inhibition rate=(ODcontrol−ODexperimental)/ODcontrol×100%
IC50 (50% inhibitory concentration) was calculated by using Logit method based on the inhibition rates at various concentration, and the results are shown in tables 1 and 2.
The following cell lines were used: human hepatocarcinoma cell line […]; ovarian cancer cell line SK-OV-3; human breast cancer cell line MDA-MB-231; human renal carcinoma cell line A498; colon adenocarcinoma cell line HT-29; non-small cell lung cancer cell line NCI-H460; lung adenocarcinoma cell line A549; human colon cancer cell line SW-620; human hepatoma cell line Bel-7402; human breast carcinoma cell line SK-BR-3; and human umbilical vein endothelial cells (HUVEC).

## CN(C)COc1ccc(-c2ccc(=O)[nH]n2)cc1C(F)(F)F [YHHU-501]
Homo sapiens, Bel-7402, 72 h
  IC50: < 100 nM

## CC(C)C(Oc1ccc(-c2ccc(=O)[nH]n2)cc1C(F)(F)F)C(C)C [YHHU-502]
Homo sapiens, Bel-7402, 72 h
  IC50: < 100 nM

## O=c1ccc(-c2ccc(OC3CCCC3)c(C(F)(F)F)c2)n[nH]1 [YHHU-503]
Homo sapiens, Bel-7402, 72 h
  IC50: < 100 nM

## CCOC(=O)CSc1ccc(-c2ccc(=O)[nH]n2)cc1C(F)(F)F [YHHU-532]
Homo sapiens, Bel-7402, 72 h
  IC50: < 100 nM

## COc1ccc(-c2ccc(=O)[nH]n2)cc1C(F)(F)F [YHHU-546]
72 hours
  IC50: < 100 nM

## O=c1ccc(-c2ccc(CO)c(C(F)(F)F)c2)n[nH]1 [YHHU-574]
Homo sapiens, Bel-7402, 72 h
  IC50: < 100 nM

## O=c1ccc(-c2ccc(CCN3CCCCC3)c(C(F)(F)F)c2)n[nH]1 [YHHU-575]
Homo sapiens, Bel-7402, 72 h
  IC50: < 100 nM

## CCOc1ccc(-c2ccc(=O)[nH]n2)cc1C(F)(F)F [YHHU-578]
Homo sapiens, Bel-7402, 72 h
  IC50: < 100 nM

## O=c1ccc(-c2ccc(OCCBr)c(C(F)(F)F)c2)n[nH]1 [YHHU-579]
Homo sapiens, Bel-7402, 72 h
  IC50: < 100 nM

## O=c1ccc(-c2ccc(O)c(C(F)(F)F)c2)n[nH]1 [YHHU-580]
Homo sapiens, Bel-7402, 72 h
  IC50: < 100 nM

## Cc1ccc(-c2ccc(=O)[nH]n2)cc1C(F)(F)F [YHHU-581]
Homo sapiens, Bel-7402, 72 h
  IC50: < 100 nM

## O=c1ccc(-c2ccc(OCCOCCO)c(C(F)(F)F)c2)n[nH]1 [YHHU-582]
Homo sapiens, Bel-7402, 72 h
  IC50: < 100 nM

## O=c1ccc(-c2ccc(CCN3CCOCC3)c(C(F)(F)F)c2)n[nH]1 [YHHU-585]
Homo sapiens, Bel-7402, 72 h
  IC50: < 100 nM

## O=c1ccc(-c2ccc(OCCC(F)(F)F)c(C(F)(F)F)c2)n[nH]1 [YHHU-586]
Homo sapiens, Bel-7402, 72 h
  IC50: < 100 nM

## CCSc1ccc(-c2ccc(=O)[nH]n2)cc1C(F)(F)F [YHHU-589]
Homo sapiens, Bel-7402, 72 h
  IC50: < 100 nM

## CN1CCCC(COc2ccc(-c3ccc(=O)[nH]n3)cc2C(F)(F)F)C1 (centres unmarked) [YHHU-590]
Homo sapiens, Bel-7402, 72 h
  IC50: < 100 nM

## O=c1ccc(-c2ccc(OC34CC5CCC(C3)C(C5)C4)c(C(F)(F)F)c2)n[nH]1 (centres unmarked) [YHHU-592]
Homo sapiens, Bel-7402, 72 h
  IC50: < 100 nM

## CC1CCC(C(C)C)C(Oc2ccc(-c3ccc(=O)[nH]n3)cc2C(F)(F)F)C1 (centres unmarked) [YHHU-595]
Homo sapiens, Bel-7402, 72 h
  IC50: < 100 nM

## CC(Oc1ccc(-c2ccc(=O)[nH]n2)cc1C(F)(F)F)N1CCCCC1 (centres unmarked) [YHHU-597]
Homo sapiens, Bel-7402, 72 h
  IC50: < 100 nM

## O=c1ccc(-c2ccc(OC3CCCCCC3)c(C(F)(F)F)c2)n[nH]1 [YHHU-598]
Homo sapiens, Bel-7402, 72 h
  IC50: < 100 nM

## CN(C)c1ccc(-c2ccc(=O)[nH]n2)cc1C(F)(F)F [YHHU-647]
Homo sapiens, Bel-7402, 72 h
  IC50: < 10 nM

## O=c1ccc(-c2ccc(Nc3ccccc3)c(C(F)(F)F)c2)n[nH]1 [YHHU-658]
Homo sapiens, Bel-7402, 72 h
  IC50: < 100 nM

## O=c1ccc(-c2ccc(NCc3ccccc3)c(C(F)(F)F)c2)n[nH]1 [YHHU-659]
Homo sapiens, Bel-7402, 72 h
  IC50: < 100 nM

## O=C(O)[C@@H]1CC(O)CN1c1ccc(-c2ccc(=O)[nH]n2)cc1C(F)(F)F (some centres unmarked) [YHHU-666]
Homo sapiens, Bel-7402, 72 h
  IC50: < 1000 nM

## O=C1CCCN1c1ccc(-c2ccc(=O)[nH]n2)cc1C(F)(F)F [YHHU-667]
Homo sapiens, Bel-7402, 72 h
  IC50: < 100 nM

## O=C1CSC(=S)N1c1ccc(-c2ccc(=O)[nH]n2)cc1C(F)(F)F [YHHU-668]
Homo sapiens, Bel-7402, 72 h
  IC50: < 1000 nM

## C[C@@H]1CN(c2ccc(-c3ccc(=O)[nH]n3)cc2C(F)(F)F)C[C@H](C)O1 [YHHU-669]
Homo sapiens, Bel-7402, 72 h
  IC50: < 10 nM

## O=c1ccc(-c2ccc(N3CCSC3)c(C(F)(F)F)c2)n[nH]1 [YHHU-670]
Homo sapiens, Bel-7402, 72 h
  IC50: < 1000 nM

## CCOC(=O)C1CCCN(c2ccc(-c3ccc(=O)[nH]n3)cc2C(F)(F)F)C1 (centres unmarked) [YHHU-671]
Homo sapiens, Bel-7402, 72 h
  IC50: < 10 nM

## O=C1CCN(c2ccc(-c3ccc(=O)[nH]n3)cc2C(F)(F)F)CC1 [YHHU-672]
Homo sapiens, Bel-7402, 72 h
  IC50: < 100 nM

## O=C1CCC(=O)N1c1ccc(-c2ccc(=O)[nH]n2)cc1C(F)(F)F [YHHU-673]
Homo sapiens, Bel-7402, 72 h
  IC50: < 1000 nM

## O=C1CSC(=O)N1c1ccc(-c2ccc(=O)[nH]n2)cc1C(F)(F)F [YHHU-674]
Homo sapiens, Bel-7402, 72 h
  IC50: < 1000 nM

## C[C@H]1CN(c2ccc(-c3ccc(=O)[nH]n3)cc2C(F)(F)F)CCN1 [YHHU-675]
Homo sapiens, Bel-7402, 72 h
  IC50: < 10 nM

## CN(C)[C@H]1CCN(c2ccc(-c3ccc(=O)[nH]n3)cc2C(F)(F)F)C1 [YHHU-676]
Homo sapiens, Bel-7402, 72 h
  IC50: < 10 nM

## O=c1ccc(-c2ccc(N3CCNCC3)c(C(F)(F)F)c2)n[nH]1 [YHHU-677]
Homo sapiens, Bel-7402, 72 h
  IC50: < 100 nM

## CC(C)(C)OC(=O)N1CCN(c2ccc(-c3ccc(=O)[nH]n3)cc2C(F)(F)F)CC1 [YHHU-678]
Homo sapiens, Bel-7402, 72 h
  IC50: < 10 nM

## O=c1ccc(-c2ccc(N3CCC(CCO)CC3)c(C(F)(F)F)c2)n[nH]1 [YHHU-679]
Homo sapiens, Bel-7402, 72 h
  IC50: < 100 nM

## CN(CCO)c1ccc(-c2ccc(=O)[nH]n2)cc1C(F)(F)F [YHHU-681]
Homo sapiens, Bel-7402, 72 h
  IC50: < 1000 nM

## C[C@@H]1CN(c2ccc(-c3ccc(=O)[nH]n3)cc2C(F)(F)F)CCN1 [YHHU-682]
Homo sapiens, Bel-7402, 72 h
  IC50: < 10 nM

## CN(C)[C@@H]1CCN(c2ccc(-c3ccc(=O)[nH]n3)cc2C(F)(F)F)C1 [YHHU-683]
Homo sapiens, Bel-7402, 72 h
  IC50: < 100 nM

## O=c1ccc(-c2ccc(N3CCN(CCO)CC3)c(C(F)(F)F)c2)n[nH]1 [YHHU-685]
Homo sapiens, Bel-7402, 72 h
  IC50: < 10 nM
